Where two headings read alike, the source gives them in different places. Where a SMILES comes first, the peptide text is derived from it. Bridges are numbered along the chain shown (N, C = ends). [ ]: non-standard residue; d: D form. Cha = N[C@@H](CC1CCCCC1)C(=O)O; Dab = NCC[C@H](N)C(=O)O
What was measured:
[1] = test system: methicillin-resistant S. aureus strain LAC biofilm; assay: Established catheter-associated biofilm in vitro; format: cell-based, Staphylococcus aureus; settings: for reduction of viable biofilm-associated cells: 72 h
Method: (§1) Each well was inoculated with the methicillin-resistant S. aureus strain LAC or P. aeruginosa ATCC 27853 to an OD600nm of 0.05. […] After 72 h of exposure, catheters were rinsed with PBS, followed by sonication (for S. aureus) or vigorous vortexing (for P. aeruginosa) to quantitatively recover adherent bacteria. Viable S. aureus or P. aeruginosa cells were enumerated by plating serial dilutions on TSA.

[2] = test system: E. coli ATCC 25922; format: cell-based, Escherichia coli; settings: E. coli; 95% serum vs TSB
Method: (§2) The impact of human serum on the antibacterial activity of selected paenipeptin analogues was determined using a procedure similar to that used for MIC determination as described above except that the microbiological medium was replaced by human serum (MP Biomedicals, Solon, Ohio). Paenipeptin analogues were two-fold diluted in 100% human serum and mixed with an equal volume of 90% serum containing approximately 1.5×10^5 CFU/mL of E. coli ATCC 25922 or S. aureus ATCC 29213. The final paenipeptin concentrations ranged from 0.5-64 μg/mL in 95% serum. The MIC in the presence of serum was then tested as described above.

[3] = test system: Escherichia coli ATCC 25922; format: cell-based; settings: ATCC 25922
Method: (§5) The minimum inhibitory concentration (MIC) of paenipeptin analogues was determined using the broth microdilution method (Wirker, M. A. Methods for Dilution Antimicrobial Susceptibility Tests for Bacteria that Grow Aerobically: Approved Standard M07-A8; Clinical and Laboratory Standards Institute, Wayne, Pa., 2009). Seven reference strains (Acinetobacter baumannii ATCC 19606, Escherichia coli ATCC 25922, Klebsiella pneumoniae ATCC 13883, Pseudomonas aeruginosa ATCC 27853, Enterococcus faecium ATCC 19434, Staphylococcus aureus ATCC 29213 and methicillin-resistant S. aureus ATCC 43300) were subjected to MIC testing.
(§6) Paenipeptin analogues were two-fold diluted in tryptic soy broth (TSB; Becton Dickinson) and mixed with an equal volume of bacterial suspensions in TSB containing approximately 1.5×10^5 colony-forming units (CFU)/mL in a clear UV-sterilized 96-well microtiter plate (NBS, Corning Inc., Corning, N.Y.). […] The microtiter plate was incubated at 37° C. for 18-20 h.

[4] = test system: P. aeruginosa ATCC 27853; assay: Impact of purified LPS on bactericidal activity; format: cell-based, Pseudomonas aeruginosa; settings: LPS 100 μg/ml; analogue at 16 μg/mL; 60 min
Method: For studies with LPS, P. aeruginosa ATCC 27853 was diluted with TSB to contain approximately 10^6 CFU/mL. […] The mixtures were incubated at 37° C. with agitation at 200 rpm for 60 min. Surviving cells were quantified by plating on TSA. There were three independent experiments with one replicate in each experiment. […] There were four independent experiments with one replicate in each experiment.

[5] = test system: P. aeruginosa ATCC 27853; assay: Time-kill assay; format: cell-based, Pseudomonas aeruginosa
Method: (§3) The surviving cells after antimicrobial treatment were enumerated at 0, 2, 4, 6 and 24 h by plating on TSA. There were three independent experiments with one replicate in each experiment

[6] = test system: P. aeruginosa ATCC 27853 biofilm; assay: Established catheter-associated biofilm in vitro; format: cell-based, Pseudomonas aeruginosa; settings: 40× MIC (40 μg/ml)
Method: as §1

[7] = test system: A. baumannii ATCC 19606; format: cell-based, Acinetobacter baumannii
Text: (§4) The surviving cells from each antimicrobial concentration with no visible growth were enumerated by plating on tryptic soy agar (TSA). MBC was defined as the lowest concentration of the antimicrobial agent that led to at least a 99.9% reduction in the number of viable bacterial cells relative to the initial inoculum. There were three independent experiments with one replicate in each experiment.

[8] = test system: S. aureus ATCC 29213; format: cell-based, Staphylococcus aureus; settings: S. aureus; 95% serum vs TSB
Method: as §2

[9] = test system: S. aureus ATCC 29213; assay: Time-kill assay; format: cell-based, Staphylococcus aureus; settings: for reduction of viable cells: after 4 h
Method: as §3

[10] = test system: Escherichia coli ATCC 25922; format: in vitro ADME
Method: To determine the stability of peptides in human serum, paenipeptin analogues were added into 100% human serum to a final concentration of 64 μg/ml. The mixtures were incubated at 37° C. and samples were withdrawn at 0, 6, 12 and 24 h. […] The residual antibacterial activity after incubation in human serum was compared to the non-treated control.

[11] = test system: Acinetobacter baumannii ATCC 19606; format: cell-based; settings: A. baumannii
Method: as §5, §6

[12] = test system: P. aeruginosa ATCC 27853; format: cell-based, Pseudomonas aeruginosa
Text: as §4

[13] = test system: rabbit red blood cells; assay: Hemolytic activity; format: cell-based; settings: relative to Triton X-100
Summary of the method: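 Washed defibrinated rabbit RBCs in PBS pH 7.2 incubated 30 min at 37 °C with paenipeptin analogues at 16–128 μg/mL final. Released hemoglobin read at 415 nm in the supernatant; % hemolysis relative to 0.1% Triton X-100.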

[14] = test system: E. coli ATCC 25922; format: cell-based, Escherichia coli
Text: as §4

[15] = test system: S. aureus ATCC 29213; assay: Impact of purified LTA on bactericidal activity; format: cell-based, Staphylococcus aureus; settings: analogue at 32 μg/mL, 60 min
[16] = test system: Klebsiella pneumoniae ATCC 13883; format: cell-based; settings: K. pneumoniae
[17] = test system: nine carbapenem-resistant clinical isolates from the FDA-CDC Antibiotic Resistance Bank; settings: range over nine carbapenem-resistant clinical isolates
Method: The minimum inhibitory concentration (MIC) of paenipeptin analogues was determined using the broth microdilution method (Wirker, M. A. Methods for Dilution Antimicrobial Susceptibility Tests for Bacteria that Grow Aerobically: Approved Standard M07-A8; Clinical and Laboratory Standards Institute, Wayne, Pa., 2009).
as §6
There were at least three independent experiments with one replicate in each experiment.

[18] = test system: A. baumannii FDA-CDC AR 0037
[19] = test system: A. baumannii FDA-CDC AR 0083
[20] = test system: K. pneumoniae FDA-CDC AR 0034
[21] = test system: A. baumannii FDA-CDC AR 0063
[22] = test system: K. pneumoniae FDA-CDC AR 0097
[23] = test system: K. pneumoniae FDA-CDC AR 0044
[24] = test system: A. baumannii FDA-CDC AR 0052
[25] = test system: 10 carbapenem-resistant strains; settings: all 10 tested strains
[26] = test system: A. baumannii FDA-CDC AR 0070
[27] = test system: K. pneumoniae FDA-CDC AR 0068
[28] = test system: K. pneumoniae FDA-CDC AR 0080

CC(C)C[C@H](NC(=O)[C@@H](Cc1ccccc1)NC(=O)[C@H](CCN)NC(=O)[C@H](Cc1ccccc1)NC(=O)[C@H](CCN)NC(=O)[C@@H](N)CC1CCCCC1)C(=O)N[C@@H](CCN)C(=O)N[C@H](CC(C)C)C(=O)N[C@@H](Cc1ccccc1)C(=O)N[C@@H](CO)C(N)=O [Analogue 17] (H-[Cha][Dab]F[Dab][dF]L[Dab][dL]FS-NH2)
reduction of viable biofilm-associated cells ([1]; 40 μg/mL (5×MIC)): 3 log
reduction of viable biofilm-associated cells ([1]; 160 μg/mL (20×MIC)): 5 log
catheters completely cleared of viable bacteria ([1]; 20 times MIC, six catheters): 50%
reduction in activity in the presence of human serum [2]: 88-94%
MIC [3]: 0.5 to 1 µg/mL
impact of purified LPS on bactericidal activity [4]: neutralized the bactericidal activity
reduction of viable cells ([5]; 8 μg/ml, 2 h): 2.2 log
regrowth at 24 h ([5]; 8 μg/ml, 24 h): significant bacterial regrowth was observed
viable cells after 24 h exposure ([5]; 16 μg/ml, 24 h): no viable cells were detected
reduction of viable cells ([5]; 16 μg/ml, within 2 h): 3.7 logs
viable cells after 24 h exposure ([5]; 32 μg/ml, 24 h): no viable cells were detected
reduction of viable cells ([5]; 32 μg/ml, within 2 h): 5.1 logs
reduction of viable cells in established biofilm [6]: 2.6 log
MBC [7]: 4 to 8 µg/mL
reduction in activity in the presence of human serum [8]: 88-94%
regrowth ([9]; 8 μg/ml): Regrowth
reduction of viable cells ([9]; 16 μg/ml): 3.1 logs
reduction of viable cells ([9]; 32 μg/ml): 5.4 logs
MIC after incubation in human serum at 37° C. ([10]; ATCC 25922, 0 h): 4 to 8 µg/mL
MIC after incubation in human serum at 37° C. ([10]; ATCC 25922, 6 h): 4 to 8 µg/mL
MIC after incubation in human serum at 37° C. ([10]; ATCC 25922, 12 h): 4 to 8 µg/mL
improvement in antibacterial activity by comparison to compound 8 [11]: ≥ 4 fold
MBC [12]: 2 to 4 µg/mL
Hemolysis ([13]; 16 μg/mL): 0.60 ± 0.18%
Hemolysis ([13]; 32 μg/mL): 2.46 ± 0.34%
Hemolysis ([13]; 64 μg/mL): 11.02 ± 0.99%
Hemolysis ([13]; 128 μg/mL): 34.6 ± 0.91%
MBC [14]: 8 to 16 µg/mL
impact of purified LTA on antibacterial activity ([15]; LTA 50 μg/ml): some inhibition
impact of purified LTA on antibacterial activity ([15]; LTA 100 μg/mL): significantly reduced the antibacterial activity
improvement in antibacterial activity by comparison to compound 8 [16]: ≥ 4 fold
MIC [17]: 0.5 to 2 µg/mL

CC(C)C[C@@H]1NC(=O)[C@@H](Cc2ccccc2)NC(=O)[C@H](CCN)NC(=O)[C@@H](NC(=O)[C@H](CCN)NC(=O)[C@@H](N)[C@@H](C)O)CCNC(=O)[C@H]([C@@H](C)O)NC(=O)[C@H](CCN)NC(=O)[C@H](CCN)NC1=O [polymyxin B nonapeptide, reference compound] (H-T[Dab][Dab][Dab][dF]L[Dab][Dab]T; lactam 3-C (inferred); N-terminus assumed)
MIC of clarithromycin at the presence of PMBN or paenipeptin analogue at 4 μg/ml ([18]; A. baumannii AR 0037): 0.125-0.25 μg/ml
MIC of rifampicin at the presence of PMBN or paenipeptin analogue at 4 μg/ml ([18]; A. baumannii AR 0037): 0.25 μg/ml
MIC alone ([18]; FDA-CDC AR 0037): >32 µg/mL
MIC of clarithromycin at the presence of PMBN or paenipeptin analogue at 4 μg/ml ([19]; A. baumannii AR 0083): 32 μg/ml
MIC of rifampicin at the presence of PMBN or paenipeptin analogue at 4 μg/ml ([19]; A. baumannii AR 0083): 8 μg/ml
MIC alone ([19]; FDA-CDC AR 0083): >32 µg/mL
MIC alone ([20]; FDA-CDC AR 0034): >32 µg/mL
MIC of clarithromycin at the presence of PMBN or paenipeptin analogue at 4 μg/ml ([20]; K. pneumoniae AR 0034): >32 μg/ml
MIC of rifampicin at the presence of PMBN or paenipeptin analogue at 4 μg/ml ([20]; K. pneumoniae AR 0034): 1 μg/ml
MIC of clarithromycin at the presence of PMBN or paenipeptin analogue at 4 μg/ml ([21]; A. baumannii AR 0063): 0.5-1 μg/ml
MIC of rifampicin at the presence of PMBN or paenipeptin analogue at 4 μg/ml ([21]; A. baumannii AR 0063): 0.125 μg/ml
MIC alone ([21]; FDA-CDC AR 0063): >32 µg/mL
MIC alone ([22]; FDA-CDC AR 0097): >32 µg/mL
MIC of clarithromycin at the presence of PMBN or paenipeptin analogue at 4 μg/ml ([22]; K. pneumoniae AR 0097): 32 μg/ml
MIC of rifampicin at the presence of PMBN or paenipeptin analogue at 4 μg/ml ([22]; K. pneumoniae AR 0097): 16 μg/ml
MIC alone ([23]; FDA-CDC AR 0044): >32 µg/mL
MIC of clarithromycin at the presence of PMBN or paenipeptin analogue at 4 μg/ml ([23]; K. pneumoniae AR 0044): 4 μg/ml
MIC of rifampicin at the presence of PMBN or paenipeptin analogue at 4 μg/ml ([23]; K. pneumoniae AR 0044): 2 μg/ml
MIC of clarithromycin at the presence of PMBN or paenipeptin analogue at 4 μg/ml ([24]; A. baumannii AR 0052): 0.0313-0.0625 μg/ml
MIC of rifampicin at the presence of PMBN or paenipeptin analogue at 4 μg/ml ([24]; A. baumannii AR 0052): 0.0625-0.125 μg/ml
MIC alone ([24]; FDA-CDC AR 0052): >32 µg/mL
MIC alone [25]: > 32 µg/mL
MIC of clarithromycin at the presence of PMBN or paenipeptin analogue at 4 μg/ml ([26]; A. baumannii AR 0070): 0.25-0.5 μg/ml
MIC of rifampicin at the presence of PMBN or paenipeptin analogue at 4 μg/ml ([26]; A. baumannii AR 0070): 0.0625-0.125 μg/ml
MIC alone ([26]; FDA-CDC AR 0070): >32 µg/mL
MIC alone ([27]; FDA-CDC AR 0068): >32 µg/mL
MIC of clarithromycin at the presence of PMBN or paenipeptin analogue at 4 μg/ml ([27]; K. pneumoniae AR 0068): >32 μg/ml
MIC of rifampicin at the presence of PMBN or paenipeptin analogue at 4 μg/ml ([27]; K. pneumoniae AR 0068): 2-8 μg/ml
MIC alone ([28]; FDA-CDC AR 0080): >32 µg/mL
MIC of clarithromycin at the presence of PMBN or paenipeptin analogue at 4 μg/ml ([28]; K. pneumoniae AR 0080): 4 μg/ml
MIC of rifampicin at the presence of PMBN or paenipeptin analogue at 4 μg/ml ([28]; K. pneumoniae AR 0080): >32 μg/ml
